Results on ten compounds are retold here after patent publication US8889701B1, “Substituted (S)-(2R,3R,5R)-3-hydroxy-(5-pyrimidin-1-yl)tetrahydrofuran-2-ylmethyl aryl phosphoramidate” (Alla Chem, LLC, priority 2013, dated 2014).

What is called EC50 is the concentration needed to bring the measured effect to its halfway point.

One assay deals with HCV replicon (genotype 1b, Con1 isolate) in human hepatoma cell line Huh7.
Test: not given
The following applies: literature value, Murakami et al., J. Biol. Chem. 285(45), 34337-34347 (2010); read-out: EC50 of known inhibitor PSI-7851 (literature); cited from earlier work.
For the compound `CC(C)OC(=O)[C@H](C)NP(=O)(OC[C@H]1O[C@@H](n2ccc(=O)[nH]c2=O)[C@](C)(F)[C@@H]1O)Oc1ccccc1` (some centres unmarked) [PSI-7851, reference compound], the EC50 was 75 nM.

The next assay has the same test system. As to the kind of experiment: HCV replicon assay (antiviral activity, anti-HCV core ELISA readout). The assay is classed as cell-based. The following applies: Hepatitis C virus, Huh-7, 72 h, read-out: EC50, activity against HCV genotype 1b. The method, then:
The HCV replicon assay was used to determine the antiviral activity of substituted phosphoramidic acid esters of the general formula 1, 1.1, 1.2, 2, 2.1, and 2.2 (test compounds). The test cell line used in the HCV Replicon Assay was a human hepatoma cell line Huh7 incorporating the HCV replicon (genotype 1b, Con1 isolate). 96-well plates were seeded with cells at a density of 7.5×10^3 cells per well in 50 μl of assay media. Test compound stock solution was made up freshly in assay medium (DMEM 1×, Cellgro; cat. #10-013-CV) as a 2× stock. A total of 11 serial 3-fold dilutions of test compounds were prepared from the 2× stock in assay media ranging from 20 nM-0.2 pM final concentrations. At least 4 hours after cells were seeded, compound treatment was initiated by adding 50 μl of compound dilution to the plates. […] The final DMSO concentration was 0.5%. Cells and inhibitors incubated for 3 days at 37° C./5% CO2. Media was removed from the plates via gentle tapping. Cells were fixed with 100 μl 1:1 acetone:methanol for 1 minute, washed three times with PBS buffer, and then blocked with 150 μl/well 10% Fetal Bovine Serum (FBS) in PBS for 1 hour at room temperature. Cells were washed three times with PBS buffer, and incubated with 100 μl/well anti-hepatitis C core mAb (Affinity BioReagents; cat. # MA1-080, 1 mg/ml stock diluted 1:4,000 in 10% FBS-PBS) for 2 hours at 37° C. Cells were washed three times with PBS and incubated with 100 μl/well HRP-Goat Anti-Mouse antibody (diluted 1:3.500 in 10% FBS-PBS) for 1 hour at 37° C. Cells were washed three times with PBS and developed with 100 μl/well OPD solution (1 OPD tablet+12 ml citrate/phosphate buffer+5 μl 30% H2O2 per plate) for 30 minutes in the dark at room temperature. The reaction was stopped with 100 μl/well of 2N H2SO4, and absorbance measured at A490 X on a Victor^3 V 1420 multilabel counter (Perkin Elmer). The EC50 values were calculated for test compounds from the resulting best-fit equations determined by Xlfit software.
With `CN1CCCC(NP(=O)(OC[C@H]2O[C@@H](n3ccc(NC(=O)OCc4ccccc4)nc3=O)C(F)(F)[C@@H]2OC(=O)OCc2ccccc2)Oc2ccccc2)C1=O` (stereo partly drawn) [1(7), benzyl 1-((2R,4R,5R)-4-(benzyloxycarbonyloxy)-3,3-difluoro-5-(((1-methyl-2-oxopiperidin-3-ylamino)(phenoxy)phosphoryloxy)methyl)tetrahydrofuran-2-yl)-2-oxo-1,2-dihydropyrimidin-4-ylcarbamate], the EC50 amounted to 552 nM.
For `O=C1OCCC1NP(=O)(OC[C@H]1O[C@@H](n2ccc(=O)[nH]c2=O)C(F)(F)[C@@H]1O)Oc1ccccc1` (stereo partly drawn) [1.1.(1), ((2R,3R,5R)-5-(2,4-dioxo-3,4-dihydropyrimidin-1(2H)-yl)-4,4-difluoro-3-hydroxytetrahydrofuran-2-yl)methyl phenyl 2-oxotetrahydrofuran-3-ylphosphoramidate], the EC50 is 459 nM.
Still for that read-out and setting: as for `CC(=O)O[C@@H]1[C@@H](COP(=O)(N[C@H]2CCOC2=O)Oc2ccccc2)O[C@@H](n2ccc(N)nc2=O)C1(F)F` (stereo partly drawn) [1.2.(2), (2R,3R,5R)-5-(4-amino-2-oxopyrimidin-1(2H)-yl)-4,4-difluoro-2-((((S)-2-oxotetrahydrofuran-3-ylamino)(phenoxy)phosphoryloxy)methyl)tetrahydrofuran-3-yl acetate], the figure is 27 nM.
The same measure, in the same setting: as for `Nc1ccn([C@@H]2O[C@H](COP(=O)(N[C@H]3CCOC3=O)Oc3ccccc3)[C@@H](O)C2(F)F)c(=O)n1` (some centres unmarked) [1.2.(1)], the figure is 19.8 nM; as for `CN1CCC(N[P@](=O)(OC[C@H]2O[C@@H](n3ccc(N)nc3=O)C(F)(F)[C@@H]2O)Oc2ccccc2)C1=O` (some centres unmarked) [2.2.(1)], 219 nM.
Still for that read-out and setting: as for `CC(=O)Nc1ccn([C@@H]2O[C@H](CO[P@@](=O)(N[C@H]3CCOC3=O)Oc3ccccc3)[C@@H](OC(C)=O)C2(F)F)c(=O)n1` [1(4), (2R,3R,5R)-5-(4-acetamido-2-oxopyrimidin-1(2H)-yl)-4,4-difluoro-2-(((S)—((S)-2-oxotetrahydrofuran-3-ylamino)(phenoxy)phosphoryloxy)methyl)tetrahydrofuran-3-yl acetate], the figure is 42.1 nM.
Regarding `CC(C)OC(=O)[C@H](C)NP(=O)(OC[C@H]1O[C@@H](n2ccc(=O)[nH]c2=O)[C@](C)(F)[C@@H]1O)Oc1ccccc1` (some centres unmarked) [PSI-7851, reference compound], the EC50 was 59.4 nM.
On the same count and under the same terms, as for `C[C@@]1(F)[C@H](O)[C@@H](COP(=O)(N[C@H]2CCOC2=O)Oc2ccccc2)O[C@H]1n1ccc(=O)[nH]c1=O` (stereo partly drawn) [1.1.(2), ((2R,3R,4R,5R)-5-(2,4-dioxo-3,4-dihydropyrimidin-1(2H)-yl)-4-fluoro-3-hydroxy-4-methyltetrahydrofuran-2-yl)methyl phenyl (S)-2-oxotetrahydrofuran-3-ylphosphoramidate], the figure is 274 nM.
On the same count and under the same terms, as for `CN1CCCC(NP(=O)(OC[C@H]2O[C@@H](n3ccc(N)nc3=O)C(F)(F)[C@@H]2O)Oc2ccccc2)C1=O` (stereo partly drawn) [1(8), ((2R,3R,5R)-5-(4-amino-2-oxopyrimidin-1(2H)-yl)-4,4-difluoro-3-hydroxytetrahydrofuran-2-yl)methyl phenyl 1-methyl-2-oxopiperidin-3-ylphosphoramidate], the figure is 873 nM.
Take `CN1CCC(NP(=O)(OC[C@H]2O[C@@H](n3ccc(=O)[nH]c3=O)C(F)(F)[C@@H]2O[Si](C)(C)C(C)(C)C)Oc2ccccc2)C1=O` (stereo partly drawn) [1.1.(4), ((2R,3R,5R)-3-(tert-butyldimethylsilyloxy)-5-(2,4-dioxo-3,4-dihydropyrimidin-1(2H)-yl)-4,4-difluorotetrahydrofuran-2-yl)methyl phenyl 1-methyl-2-oxopyrrolidin-3-ylphosphoramidate]: the EC50 worked out at 40.5 nM.
